# Reference: a melting point compilation (Tetko et al.; mined from patent text by program, amines drawn as free bases though some values may be those of a salt)
row,melting point,Compound
1,140 to 142 °C,O=C1CC(c2ccccc2)Cc2c1ccn2C(=O)c1ccccc1 (configuration not stated)
2,223 to 228 °C,N#CC(=Cc1cc(O)c(O)c([N+](=O)[O-])c1)C(=O)NCCCO
3,109 °C,CCN(CC)C(=O)C(C)Oc1cc(-c2ccccc2)cc2ccccc12 (configuration not stated)
4,216 to 218 °C,Nc1ccc2c(c1)C(=O)N(C1CCN(Cc3ccccc3)CC1)C2=O
5,87 to 90 °C,CS(=O)(=O)c1ccc(-n2nc(C(F)(F)F)cc2-c2ccc(C#CCCCO)cc2)cc1
6,145 to 149 °C,Cc1nc(N)nc(N)c1C#CCc1ccccc1
7,148 to 150 °C,C[C@H](OC(=O)NCC(F)(F)C(F)(F)F)C(=O)N[C@@H]1C(=O)N(C)c2cc(F)ccc2O[C@@H]1C
8,124 °C,COc1ccc2c(c1)C=CC(C#N)N2C(=O)c1ccccc1 (configuration not stated)
9,228 to 230 °C,CS(=O)(=O)c1ccc(-c2nc(C(F)(F)F)[nH]c2-c2ccccc2)cc1
10,115 to 117 °C,O=C(CCCN1CCCCC1)c1ccc2c(c1)Cc1cc(C(=O)CCCN3CCCCC3)ccc1O2
11,184 to 185 °C,COc1ccc(Cn2cnc3c(-c4ccco4)nc(S(C)(=O)=O)nc32)cc1
12,244 to 245 °C,O=C(O)c1cccc(C(=O)Nc2ccc(-n3nc(C(F)(F)F)cc3C(F)(F)F)cc2)c1
13,120 to 122 °C,COc1cc2nc(SCc3ncc(C)c(N(C)C)c3Cl)[nH]c2cc1OC
14,160 to 162 °C,NCc1cc(Cl)ccc1O
15,127 to 128 °C,O=c1oc(-c2ccc(Oc3ccccc3)cc2)cc(O)c1SCCc1ccccc1
16,64 to 67 °C,CCC(Cc1ccc(C(=O)OC)cc1)NCC(O)c1ccc(O)c(CO)c1 (configuration not stated)
17,235 to 236 °C,Cc1ccc(S(=O)(=O)NNC2=CC(=O)CC(c3ccccc3Cl)C2)cc1 (configuration not stated)
18,120 °C,CCOC(=O)CC=NCC(O)COc1ccccc1C#N (configuration not stated)
19,178 to 179 °C,CC(=O)c1cc(Cl)sc1S(N)(=O)=O
20,145 to 147 °C,COc1ccccc1N1CCN(CNC(=O)c2ccc(Cl)cc2)CC1
21,75 to 76 °C,CCOC(=O)C(C)(C)OCc1oc(-c2ccc(Cl)cc2)nc1C
22,65 to 70 °C,CN(C)S(=O)(=O)c1ccc(C(F)(F)F)cc1N
23,184 to 186 °C,C[C@H]1NC(Cc2ccc(Br)c(Oc3cc(C#N)cc(C(F)F)c3)c2F)=NNC1=O
24,137 to 138 °C,C=CCN(CC=C)CC(=O)N1c2ccccc2N(CCCC)C(=O)c2cnc(-c3ccccc3)nc21

row,melting point,Compound
1,117 to 118 °C,O=S(=O)(Nc1ccc(C(O)(C(F)(F)F)C(F)(F)F)cc1)c1ccccc1
2,262 to 265 °C,CCc1nc(N)nc(N)c1-c1ccc(NC)c([N+](=O)[O-])c1
3,112 to 114 °C,COC(=O)Cc1c(C)n(-c2ncnc3cc(Cl)ccc23)c2ccc(OC)cc12
4,254 °C,Cc1ccc(C(=O)C2=C(O)C(=O)N(c3ccc(C)nn3)C2c2ccc(C)cc2C)cc1 (configuration not stated)
5,198 to 200 °C,Cc1c(C(=O)N2CCC[C@H](C)C2)[nH]c2ccccc12
6,137 to 139 °C,CCOC(=O)Cn1nc2ccc(NCCCN3CCC(OC(c4ccccc4)c4ccccc4)CC3)nn2c1=O
7,260 to 262 °C,COc1ccc(OC)c2c1C(=O)c1ccc(-c3nnn[nH]3)cc1C2=O
8,119 to 121 °C,CC(N)=CC(=O)CS(=O)(=O)NC(C)C
9,94 to 95 °C,C=CCN(CC=C)c1nc(N(CC=C)CC=C)nc(N2CCN(C(=O)n3ccnc3)CC2)n1
10,123 to 137 °C,CC(Cc1c[nH]c2ccccc12)(NC(=O)OC1C2CC3CC(C2)CC1C3)C(=O)c1ccccc1CCCC(=O)O (configuration not stated)
11,112 to 114 °C,COC1(NC(=O)OCc2ccccc2)CNC1=O (configuration not stated)
12,115 to 118 °C,COc1cc(OC)nc(Oc2ccnc3c(Cl)cccc23)n1
13,179 to 184 °C,Cc1cccc(-c2[nH]c(C(C)C)nc2-c2cccc(-c3ccc(NS(C)(=O)=O)cc3F)c2)n1
14,153 to 154 °C,Cc1cccc(C)c1NC(=O)C(C)N1CSCC1=O (configuration not stated)
15,252 to 254 °C,Cc1ccc2c(c1)C(=O)CCC21CCC(=O)NC1=O (configuration not stated)
16,135 °C,O=C(NCCc1ccccc1F)[C@@H]1Cc2ccccc2N1
17,296 to 302 °C,Cc1c(-c2ccccc2)[nH]c2ccc(Cl)cc2c1=O
18,209 to 210 °C,CCn1c2c(c3ccc(OC)cc31)CN(C(=O)c1ccc(C)c3ccccc13)CC2
19,217 to 219 °C,CCOC(=O)c1nc(N)sc1-c1nc2ccc(Cl)cn2c1C
20,250 to 252 °C,CN1CC(=O)Nc2ccc([N+](=O)[O-])cc2C1=O
21,79.5 to 81 °C,CCCCOC(=O)CN(C(=O)C(F)(F)F)C(N1CCOCC1)P(=O)(O)OSc1ccc(Cl)cc1 (configuration not stated)
22,119 to 122 °C,CSc1cc(C)nc(SC)c1NC(=O)CCCCCCCSc1nc2ccccc2o1
23,297 to 302 °C,O=c1[nH]c2cc(Br)c3c(c2[nH]c1=O)CN(Cc1ccccc1)CC3
24,91 to 92 °C,NC(Cc1cccc(C(F)(F)F)c1)=NO

row,melting point,Compound
1,173 to 174 °C,CCn1cc[nH]c(=O)c1=O
2,128 to 131 °C,CC(C)(C)OC(=O)N[C@H]1C(=O)N[C@H]1CO (relative stereo)
3,159 to 161 °C,Cc1ccc([N+](=O)[O-])cc1S(=O)(=O)n1ccnc1C
4,164 to 165 °C,O=C(O)CCn1c(=S)sc2ccccc21
5,68 °C,CCCCCCCCC=CCCCCCCCC(N)=O
6,99 to 101 °C,"Cc1cccc(C)c1N1CC(C)N(c2c(C)cccc2C)C1=N (single isomer, unassigned; (+))"
7,> 200 °C,Cc1nc(N2CCN(CC3CC3)C2=O)sc1C(=O)NCc1ccncc1
8,99 °C,CCCOc1ccc(C#N)cc1O
9,160 to 162 °C,COc1ccc2ccccc2c1/C=C/NC=O
10,294 to 296 °C,CCOC(=O)c1nnc2ccc([N+](=O)[O-])cc2c1O
11,233 °C,O=C(N[C@H]1CC[C@H](CCN2CCC(c3cccc4c3CCO4)CC2)CC1)c1ccc2c(c1)OCO2
12,125 to 127 °C,CCOC(=O)c1c(C(C)(C)O)nc(SC)n1Cc1ccc(-c2ccccc2-c2nnn[nH]2)cc1
13,138 to 140 °C,COc1c(C)cnc(CSc2nc3cc4c(cc3[nH]2)OC(F)C(F)(F)O4)c1C (configuration not stated)
14,206 to 207 °C,C[C@@H]1CN(CC(=O)Nc2ccccc2Cl)C[C@H](C)N1c1ncnc2sccc12
15,297 to 298 °C,O=c1[nH]ncn1-c1ccc(-n2ncn(-c3ccc(OCC(F)(F)C(F)F)cc3)c2=O)cc1
16,110 °C,CCNC=C(C(=O)OCC)C(=O)c1cc(F)c(F)c(C)c1F
17,127 °C,CC1(C)CCC(C)(C)c2cc3c(cc21)OCC3(C)c1cc(CO)cs1 (configuration not stated)
18,212 to 214 °C,O=C(Nc1ccc(O)cc1)Nc1cc(Cl)ccc1C(=O)O
19,210 to 212 °C,NN1C=NNC1=Cc1ccccc1O
20,115 °C,CN1C(=O)CCC(C)(C)c2cc([N+](=O)[O-])ccc21
21,145 °C,CC=C1CC1C(=C1C(=O)OC(=O)C1c1cc(C)n(-c2ccccc2)c1C)C1CC1 (configuration not stated)
22,106 to 107 °C,ClC(Cl)(Cl)c1nsc(N2CCCC2)n1
23,192 to 193 °C,CC(C)(C)OC(=O)Nc1ccnc(NC(=O)NCc2ccccn2)c1
24,102 to 145 °C,NC1CCc2ccccc2C1NC(=O)OCc1ccccc1 (configuration not stated)

row,melting point,Compound
1,263 to 265 °C,CCCCc1ccc(-c2csc(-c3ccc(C(=O)O)cc3)n2)cc1
2,70 to 71 °C,COC(=O)c1ccc2cccc3c2c1-c1ccccc1-3
3,125 to 140 °C,CC(C)Cn1c(C(O)c2ccccc2)nc2c(N)nc3ccccc3c21 (configuration not stated)
4,77 °C,CCCCCCCCC#CCC#CCC#CCS(=O)CC(=O)NCC (configuration not stated)
5,242 °C,CC(=O)OC(c1nc2c(C(F)(F)F)cccc2c(O)c1C(=O)Nc1nccs1)C(C)C (configuration not stated)
6,120 to 122 °C,CCCCCCCCNC(=O)c1cscc1C(=O)O
7,89 to 90 °C,CC(C)(C)c1cc(C(=O)c2ccsc2)cc2c1OCC2(C)C
8,275 to 280 °C,CC(=O)Nc1ccc2c(c1)C(=O)N(c1ccc3c(ccn3C)c1)C2
9,186 to 187 °C,O=CC(=Cc1ccccc1OCc1ccc(Cl)cc1)C(C=O)=Cc1ccccc1OCc1ccc(Cl)cc1
10,202 to 203 °C,COc1ccc(Cl)cc1C(=O)NCCc1ccc(-c2ccccn2)c(S(N)(=O)=O)c1
11,192 °C,CCCCN1CC(=O)N2[C@@H](c3ccc(N)cc3)c3[nH]c4ccccc4c3C[C@@H]2C1=O (relative stereo)
12,191 to 193 °C,COc1ccc(O)c(C(=O)Nc2ccccc2C(=O)NCCCC(=O)O)c1
13,125 °C,Cc1ccc(-c2ccc(Cl)cc2)cc1C#CC(C)(C)OCC(=O)O
14,81 °C,CC(C)(C)Cc1c(C(C)(C)C)ssc1=S
15,101 °C,CC(O)C(CCCc1ccccc1)n1ncc2c(=O)[nH]c(Cc3ccc(Cl)cc3)nc21 (configuration not stated)
16,210 to 212 °C,COc1cc2c(cc1C(F)(F)F)N(C(=O)Nc1ccc(F)c(-c3cccnc3)c1)CC2
17,139 to 141 °C,CC(C)(OCCN1C(=O)c2ccccc2C1=O)OCCN1C(=O)c2ccccc2C1=O
18,74 °C,COCc1ccc(-c2ncccc2C#N)cc1
19,98 to 102 °C,CCCCCCCCCCCCCCCCCC(=O)Nc1cccc(N)c1
20,130 to 133 °C,CS(=O)(=O)OCc1cc(I)cc(I)c1I
21,199 to 200 °C,O=C1NN=C(c2ccc(Cl)cc2)C2CC12 (configuration not stated)
22,175 to 176 °C,CCOCc1nc2c(N)nc3cc(-n4ccnc4)cnc3c2n1CC(C)C
23,200 to 205 °C,CCCCNc1nc(C)c(C(=O)c2ccc(N)c([N+](=O)[O-])c2)s1
24,115 to 116 °C,O=C1CC(c2ccccc2)NC(=O)C1C(=O)c1ccccc1F (configuration not stated)

row,Compound,melting point
1,Cc1ccc(N=C2NCCN2)c(Cl)c1Cl,158 to 162 °C
2,CC1(Cl)CSC2C(NC(=O)Cc3ccccc3)C(=O)N2C1C(=O)OCc1ccc([N+](=O)[O-])cc1 (configuration not stated),134 to 136 °C
3,CNC1CCc2[nH]c3c(F)cc(F)cc3c2C1 (configuration not stated),135 to 138 °C
4,Cc1ccc(Cc2cnc[nH]2)cc1NS(C)(=O)=O,170 °C
5,CC(CBr)N1CCN(c2ccccn2)CC1 (configuration not stated),50 to 51 °C
6,"NCC(CCO)c1ccc(Cl)c(Cl)c1 (single isomer, unassigned; (+))",80 to 81 °C
